The test system of this assay is P. falciparum infected erythrocytes. As to the kind of experiment: P. falciparum growth inhibition assay ([3H]hypoxanthine incorporation). The format is cell-based, Plasmodium falciparum. The procedure: P. falciparum Growth Inhibition Assay.
The sensitivity of P. falciparum infected erythrocytes to the compound was determined in duplicate using the [3H]hypoxanthine incorporation method with an inoculum of 0.5% parasitemia (ring stage) and 2% hematocrit. The parasites were grown in RPMI 1640, 25 mM HEPES and supplemented with 5% Albumax. Plates are incubated at 37° C., 5% CO2, 5% O2, 90% N2. After 24 h of incubation, [3H]hypoxanthine is added and plates are incubated for another 24 h. After that period, plates are harvested on a glass fiber filter using a TOMTEC Cell harvester 96. Filters are dried and melt on scintillator sheets and the bound radioactivity is quantified by use of a Wallac Microbeta Trilux (Model 1450 LS—Perkin Elmer). IC50s are determined using Grafit 7 program (Grafit program; Erithacus Software, Horley, Surrey, United Kingdom).
Each example compound was tested generally in accordance with the above-mentioned assay and the PfIC50 value for each compound is reported in the Table below and according to the following: […]

[1] abbreviates: Plasmodium falciparum, Erythrocyte, [3H]hypoxanthine incorporation, 0.5% parasitemia, 2% hematocrit, 48 h, read-out: PfIC50 Media.
Setting [2] is: [3H]hypoxanthine incorporation, 0.5% parasitemia, 2% hematocrit, 48 h, read-out: PfIC50 Media.
The mark [3] stands for this setting: Plasmodium falciparum, Erythrocyte, read-out: average PfIC50.

SMILES strings stand for the structures. Counter-ions that a name gives are not always drawn. Like-named read-outs stand apart in the source and are kept apart here. Bounds are passed on as bounds.

For the compound `N[C@@H](COc1ccc(C(=O)N2CC[C@@H](c3ccc(F)cc3)C2)cc1)Cn1ncnn1` [Example 50, (4-((R)-2-amino-3-(2H-tetrazol-2-yl)propoxy)phenyl)((S)-3-(4-fluorophenyl)pyrrolidin-1-yl)methanone, Hydrochloride], the IC50 runs as follows: under setting [1], 0.1 to 0.5 µM; (Plasmodium falciparum, Erythrocyte, hydrochloride salt, read-out: average PfIC50 of the hydrochloride salt) 0.219 µM.
`COc1ccc(C2CCN(C(=O)c3ccc(OC[C@H](O)Cn4ncnn4)cc3)C2)cc1` (single isomer, unassigned) [Example 44a]: the IC50 under setting [2] was less than 0.1 µM.
In the case of `O=C(c1ccc(OCC(O)Cc2cscn2)cc1)N1CC[C@H](c2ccc(F)cc2)C1` (single isomer, unassigned) [Example 35a], the IC50 by setting is: under setting [1], less than 0.1 µM; under setting [3], not above 0.05 µM.
`O=C(c1ccc(OC[C@@H](O)Cn2ncnn2)cc1)N1CC[C@@H](c2ccc(F)cc2)C1` [Example 14, ((S)-3-(4-Fluorophenyl)pyrrolidin-1-yl)(4-((S)-2-hydroxy-3-(2H-tetrazol-2-yl)propoxy)phenyl)methanone]: the IC50 under setting [1] is 1 to 5 µM and the IC50 under setting [3] amounted to 1.2 µM.
Consider `CC(O)(COc1ccc(C(=O)N2CC[C@H](c3ccc(F)cc3)C2)cc1)Cn1cnnn1` (single isomer, unassigned) [Example 10a], for which, under setting [1], the IC50 was 1 to 5 µM.
As to `CC(O)(COc1ccc(C(=O)N2CC[C@H](c3ccc(F)cc3)C2)cc1)Cn1cnnn1` (stereo partly drawn) [Example 10b, ((R)-3-(4-Fluorophenyl)pyrrolidin-1-yl)(4-(2-hydroxy-2-methyl-3-(1H-tetrazol-1-yl)propoxy)phenyl)methanone], under setting [2], the IC50 was in the range of 1 to 5 µM.
Regarding `CC(COc1ccc(C(=O)N2CC[C@H](c3ccc(F)cc3)C2)cc1)Cn1cnnn1` (single isomer, unassigned) [Example 1a], the IC50 under setting [1] was in the range of 0.1 to 0.5 µM.
As for `O=C(c1ccc(OC[C@H](O)Cn2ncnn2)cc1)N1CCC(c2ccccc2F)C1` (single isomer, unassigned) [Example 40a], the IC50 reads like this: under setting [1], less than 0.1 µM; under setting [3], not above 0.05 µM.
For the compound `O=C(c1ccc(OC[C@H](O)Cn2ccnc2)cc1)N1CC[C@H](c2ccc(F)cc2)C1` [Example 20, ((R)-3-(4-fluorophenyl)pyrrolidin-1-yl)(4-((R)-2-hydroxy-3-(1H-imidazol-1-yl)propoxy)phenyl)methanone], the IC50 under setting [1] was less than 0.1 µM.
With `O=C(c1ccc(OC[C@H](O)Cn2ccnn2)cc1)N1CC[C@H](c2ccc(F)cc2)C1` [Example 17, ((R)-3-(4-fluorophenyl)pyrrolidin-1-yl)(4-((R)-2-hydroxy-3-(1H-1,2,3-triazol-1-yl)propoxy)phenyl)methanone], the IC50 was less than 0.1 µM under setting [1] and not above 0.05 µM under setting [3].
`O=C(c1ccc(OC[C@H](O)Cn2ncnn2)cc1)N1CCC(c2cccc(F)c2)C1` (single isomer, unassigned) [Example 41a]: the IC50 runs as follows: under setting [3], not above 0.05 µM; under setting [2], less than 0.1 µM.
With `O=C(c1ccc(OC[C@H](O)Cc2nnn[nH]2)cc1)N1CC[C@H](c2ccc(F)cc2)C1` [Example 25, ((R)-3-(4-fluorophenyl)pyrrolidin-1-yl)(4-((R)-2-hydroxy-3-(1H-tetrazol-5-yl)propoxy)phenyl)methanone], the IC50 under setting [1] fell in the range of 1 to 5 µM.
Regarding `O=C(c1ccc(OC[C@@H](O)Cn2ncnn2)cc1)N1CC[C@H](c2ccc(F)cc2)C1` [Example 8, ((R)-3-(4-fluorophenyl)pyrrolidin-1-yl)(4-((S)-2-hydroxy-3-(2H-tetrazol-2-yl)propoxy)phenyl) methanone], the IC50 reads like this: under setting [1], less than 0.1 µM; under setting [3], 0.052 µM.
Take `CC(C)(COc1ccc(C(=O)N2CC[C@H](c3ccc(F)cc3)C2)cc1)Cn1cnnn1` [Example 2, (R)-(4-(2,2-Dimethyl-3-(1H-tetrazol-1-yl)propoxy)phenyl)(3-(4-fluorophenyl)pyrrolidin-1-yl)methanone]: the IC50 under setting [1] was in the range of 0.5 to 1 µM.
Regarding `O=C(c1ccc(OC[C@H](O)Cn2ncnn2)cc1)N1CCC(c2ccc(F)cc2F)C1` (single isomer, unassigned) [Example 42a], the IC50 by setting is: under setting [1], less than 0.1 µM; under setting [3], not above 0.05 µM.
On to `O=C(c1ccc(OC[C@H](O)Cn2cncn2)cc1)N1CC[C@H](c2ccc(Cl)cc2)C1` [Example 30, ((R)-3-(4-chlorophenyl)pyrrolidin-1-yl) (4-((R)-2-hydroxy-3-(1H-1,2,4-triazol-1-yl)propoxy)phenyl)methanone], for which the IC50 under setting [1] is less than 0.1 µM.
With `O=C(c1ccc(OC[C@H](O)Cn2cncn2)cc1)N1CC[C@H](c2ccc(F)cc2)C1` [Example 15, ((R)-3-(4-fluorophenyl)pyrrolidin-1-yl)(4-((R)-2-hydroxy-3-(1H-1,2,4-triazol-1-yl)propoxy)phenyl)methanone], the IC50 is, setting by setting: under setting [1], less than 0.1 µM; under setting [3], not above 0.05 µM.
Take `N#Cc1ccc(C2CCN(C(=O)c3ccc(OC[C@H](O)Cn4ncnn4)cc3)C2)cc1` (single isomer, unassigned) [Example 43b]: under setting [2], the IC50 lay in the range of 1 to 5 µM.
Consider `Cc1nnnn1C[C@@H](O)COc1ccc(C(=O)N2CC[C@H](c3ccc(F)cc3)C2)cc1` [Example 21, ((R)-3-(4-fluorophenyl)pyrrolidin-1-yl)(4-((R)-2-hydroxy-3-(5-methyl-1H-tetrazol-1-yl)propoxy)phenyl)methanone], for which the IC50 under setting [1] fell in the range of 0.5 to 1 µM.
Take `N#Cc1nnn(C[C@@H](O)COc2ccc(C(=O)N3CC[C@H](c4ccc(F)cc4)C3)cc2)n1` [Example 39, 2-((R)-3-(4-((R)-3-(4-Fluorophenyl)pyrrolidine-1-carbonyl)phenoxy)-2-hydroxypropyl)-2H-tetrazole-5-carbonitrile]: the IC50 under setting [1] fell in the range of 0.1 to 0.5 µM.
As for `O=C(c1ccc(OCC(F)Cn2cnnn2)cc1)N1CC[C@H](c2ccc(F)cc2)C1` (single isomer, unassigned) [Example 3a], the IC50 under setting [1] lay within 0.1 to 0.5 µM.
In the case of `O=C(c1ccc(OC[C@H](O)Cn2ncnn2)cc1F)N1CC[C@H](c2ccc(Cl)cc2)C1` [Example 34, ((R)-3-(4-chlorophenyl)pyrrolidin-1-yl) (2-fluoro-4-((R)-2-hydroxy-3-(2H-tetrazol-2-yl)propoxy)phenyl)methanone], the IC50 under setting [1] is less than 0.1 µM.
For `O=C(c1ccc(OC[C@H](O)Cn2ncnn2)cc1)N1CCC(c2ccc(F)cc2F)C1` (single isomer, unassigned) [Example 42b], the IC50 under setting [2] lay in the range of 0.1 to 0.5 µM.
For the compound `O=C(c1ccc(OC[C@H](O)Cn2ncnn2)cc1)N1CC[C@H](c2ccc(Cl)cc2)C1` [Example 29, ((R)-3-(4-chlorophenyl)pyrrolidin-1-yl)(4-((R)-2-hydroxy-3-(2H-tetrazol-2-yl)propoxy)phenyl)methanone], the IC50 under setting [1] is less than 0.1 µM and the IC50 under setting [3] is not above 0.05 µM.
`O=C(c1ccc(OC[C@H](O)Cn2cnnn2)cc1F)N1CC[C@H](c2ccc(Cl)cc2)C1` [Example 33, ((R)-3-(4-chlorophenyl)pyrrolidin-1-yl) (2-fluoro-4-((R)-2-hydroxy-3-(1H-tetrazol-1-yl)propoxy)phenyl)methanone]: under setting [1], the IC50 fell in the range of 0.1 to 0.5 µM.
For the compound `O=C(c1ccc(OCC(O)Cc2cscn2)cc1)N1CC[C@H](c2ccc(F)cc2)C1` (single isomer, unassigned) [Example 35b], the IC50 under setting [2] was 0.1 to 0.5 µM.
Consider `O=C(c1ccc(OC[C@H](O)Cn2nccn2)cc1)N1CC[C@H](c2ccc(Cl)cc2)C1` [Example 31, ((R)-3-(4-chlorophenyl)pyrrolidin-1-yl)(4-((R)-2-hydroxy-3-(2H-1,2,3-triazol-2-yl)propoxy)phenyl)methanone], for which the IC50 was less than 0.1 µM under setting [1] and not above 0.05 µM under setting [3].
For the compound `N#Cc1ccc(C2CCN(C(=O)c3ccc(OC[C@H](O)Cn4ncnn4)cc3)C2)cc1` (single isomer, unassigned) [Example 43a], under setting [2], the IC50 lay within 0.1 to 0.5 µM.
`O=C(c1ccc(OCC(F)Cn2cnnn2)cc1)N1CC[C@H](c2ccc(F)cc2)C1` (single isomer, unassigned) [Example 3b]: the IC50 is not above 0.05 µM under setting [3] and less than 0.1 µM under setting [2].
Turning to `Cn1nnnc1C[C@@H](O)COc1ccc(C(=O)N2CC[C@H](c3ccc(F)cc3)C2)cc1` [Example 24, ((R)-3-(4-fluorophenyl)pyrrolidin-1-yl)(4-((R)-2-hydroxy-3-(1-methyl-1H-tetrazol-5-yl)propoxy)phenyl)methanone], under setting [1], the IC50 lay in the range of 0.1 to 0.5 µM.
On the same count and under the same terms, with `O=C(c1ccc(OC[C@H](O)Cn2cnnn2)cc1F)N1CC[C@H](c2ccc(F)cc2)C1` [Example 26, (2-fluoro-4-((R)-2-hydroxy-3-(1H-tetrazol-1-yl)propoxy)phenyl)((R)-3-(4-fluorophenyl)pyrrolidin-1-yl)methanone] the figure was 0.1 to 0.5 µM.
Regarding `N[C@@H](COc1ccc(C(=O)N2CC[C@H](c3ccc(F)cc3)C2)cc1)Cn1cnnn1` [Example 46, (4-((R)-2-amino-3-(1H-tetrazol-1-yl)propoxy)phenyl)((R)-3-(4-fluorophenyl)pyrrolidin-1-yl)methanone], under setting [1], the IC50 was less than 0.1 µM.
Consider `N[C@@H](COc1ccc(C(=O)N2CC[C@H](c3ccc(Cl)cc3)C2)cc1)Cn1cnnn1` [Example 47, (4-((R)-2-amino-3-(1H-tetrazol-1-yl)propoxy)phenyl)((R)-3-(4-chlorophenyl)pyrrolidin-1-yl)methanone], for which the IC50 runs as follows: under setting [1], less than 0.1 µM; (Plasmodium falciparum, Erythrocyte, hydrochloride salt of the example, same assay, read-out: PfIC50 Media (uM), (HCl)) less than 0.1 µM.

Source of the values: patent US11453657B2 (GlaxoSmithKline Intellectual Property Development Limited, priority 2018, dated 2022).
